# Data published in US20140228325A1, “ALKENE DERIVATIVES AS SPHINGOSINE 1-PHOSPHATE (S1P) RECEPTOR MODULATORS” (Allergan, Inc., priority 2013, published 2014).
# Molecular target: T1, human S1P1 receptor (Homo sapiens, UniProt P21453)
# T1 construct: expressed in transfected cells; membranes used
# Assay: GTP γ35S binding assay for S1P1 activity
# Assay type: biochemical
# Conditions: membranes of cells stably expressing the S1P1 receptor, test concentrations 0.08 to 5,000 nM, 30 min at 25° C.
# Protocol: Compounds were synthesized and tested for S1P1 activity using the GTP γ^35S binding assay. These compounds may be assessed for their ability to activate or block activation of the human S1P1 receptor in cells stably expressing the S1P1 receptor. GTP γ^35S binding was measured in the medium containing (mM) HEPES 25, pH 7.4, MgCl2 10, NaCl 100, dithitothreitol 0.5, digitonin 0.003%, 0.2 nM GTP γ^35S, and 5 μg membrane protein in a volume of 150 μl. Test compounds were included in the concentration range from 0.08 to 5,000 nM unless indicated otherwise. Membranes were incubated with 100 μM 5′-adenylylimmidodiphosphate for 30 min, and subsequently with 10 μM GDP for 10 min on ice. Drug solutions and membrane were mixed, and then reactions were initiated by adding GTP γ^35S and continued for 30 min at 25° C. Reaction mixtures were filtered over Whatman GF/B filters under vacuum, and washed three times with 3 mL of ice-cold buffer (HEPES 25, pH7.4, MgCl2 10 and NaCl 100). Filters were dried and mixed with scintillant, and counted for ^35S activity using a β-counter. Agonist-induced GTP γ^35S binding was obtained by subtracting that in the absence of agonist. Binding data were analyzed using a non-linear regression method. In case of antagonist assay, the reaction mixture contained 10 nM S1P in the presence of test antagonist at concentrations ranging from 0.08 to 5000 nM.
# Activity potency: S1P1 receptor from GTP γ^35S: nM, (EC50),
# T1 sequence (P21453 whole entry): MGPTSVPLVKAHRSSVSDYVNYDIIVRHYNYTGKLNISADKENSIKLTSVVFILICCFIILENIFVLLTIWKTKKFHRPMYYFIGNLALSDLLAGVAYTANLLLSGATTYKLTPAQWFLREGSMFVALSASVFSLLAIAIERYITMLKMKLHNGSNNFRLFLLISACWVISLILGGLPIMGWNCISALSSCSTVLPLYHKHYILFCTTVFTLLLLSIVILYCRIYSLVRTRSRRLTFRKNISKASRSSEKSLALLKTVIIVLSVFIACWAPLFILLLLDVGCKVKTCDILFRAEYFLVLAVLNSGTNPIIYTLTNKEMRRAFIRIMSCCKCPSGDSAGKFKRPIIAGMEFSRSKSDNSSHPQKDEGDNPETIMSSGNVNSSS
row,Compound,EC50
1,"Cc1ccc(/C=C(\CCCOc2ccc(CNCCCP(=O)(O)O)cc2)c2cc(F)cc(F)c2)cc1C [Compound 4, {3-[(4-{[(4E)-4-(3,5-Difluorophenyl)-5-(3,4-dimethylphenyl)pent-4-en-1-yl]oxy}benzyl)amino]propyl}phosphonic acid]",7.84 nM
2,"Cc1ccc(/C=C(\CCCCSc2ccc(CNCCC(=O)O)cc2)c2cc(F)cc(F)c2)cc1C [Compound 9, 3-[(4-{[(5E)-5-(3,5-Difluorophenyl)-6-(3,4-dimethylphenyl)hex-5-en-1-yl]thio}benzyl)amino]propanoic acid]",639 nM
3,"Cc1ccc(/C=C(\CCCOc2ccc(CNCCCP(=O)(O)O)cc2)c2cccc(Cl)c2)cc1C [Compound 1, {3-[(4-{[(4E)-4-(3-Chlorophenyl)-5-(3,4-dimethylphenyl)pent-4-en-1-yl]oxy}benzyl)amino]propyl}phosphonic acid]",9.65 nM
4,"Cc1ccc(/C=C(\CCCOc2ccc(CNCCC(=O)O)cc2)c2cccc(Cl)c2)cc1C [Compound 2, 3-[(4-{[(4E)-4-(3-Chlorophenyl)-5-(3,4-dimethylphenyl)pent-4-en-1-yl]oxy}benzyl)amino]propanoic acid]",73.2 nM
5,"Cc1ccc(/C=C(\CCCSc2ccc(CNCCC(=O)O)cc2)c2cc(F)cc(F)c2)cc1C [Compound 8, 3-[(4-{[(4E)-4-(3,5-Difluorophenyl)-5-(3,4-dimethylphenyl)pent-4-en-1-yl]thio}benzyl)amino]propanoic acid]",10.2 nM
6,"Cc1ccc(/C=C(\CCC[S+]([O-])c2ccc(CNCCC(=O)O)cc2)c2cccc(Cl)c2)cc1C (centres unmarked) [Compound 5, 3-[(4-{[(4E)-4-(3-Chlorophenyl)-5-(3,4-dimethylphenyl)pent-4-en-1-yl]sulfinyl}benzyl)amino]propanoic acid]",450 nM
7,"Cc1ccc(/C=C(\CCCOc2ccc(CNCCC(=O)O)cc2)c2cc(F)cc(F)c2)cc1C [Compound 3, 3-[(4-{[(4E)-4-(3,5-Difluorophenyl)-5-(3,4-dimethylphenyl)pent-4-en-1-yl]oxy}benzyl)amino]propanoic acid]",51.9 nM
8,"Cc1ccc(/C=C(\CCC[S+]([O-])c2ccc(CNCCC(=O)O)cc2)c2cc(F)cc(F)c2)cc1C (centres unmarked) [Compound 7, 3-[(4-{[(4E)-4-(3,5-Difluorophenyl)-5-(3,4-dimethylphenyl)pent-4-en-1-yl]sulfinyl}benzyl)amino]propanoic acid]",111 nM
